Data taken from patent US20230414735A1, “NEOANTIGENS AND METHODS OF THEIR USE” (priority 2016, published 2023).
Read-outs that look alike come from different tables or passages of the source. Where no end group is shown, it is not given here.

Target: HLA class I molecule
Assay: HLA class I peptide binding affinity assay (inhibition of 125I-radiolabeled probe peptide binding to purified HLA)
Parameters: species or system human
Settings: read-out: Observed Affinity (IC50, (nM))
Method: Epstein-Barr virus (EBV)-transformed homozygous cell lines, fibroblasts, CIR, or 721.22 transfectants are used as sources of HLA class I molecules. […] HLA molecules are purified from lysates by affinity chromatography. The lysates are passed over a column of Sepharose CL-4B beads coupled to an appropriate antibody. […] A 1/25 volume of 2.0 M Tris, pH 6.8, is added to the eluate to reduce the pH to […]. Eluates are then concentrated by centrifugation in Centriprep 30 concentrators (Amicon, Beverly, MA). Protein content is evaluated by a BCA protein assay (Pierce Chemical Co., Rockford, IL) and confirmed by SDS-PAGE.
Following incubation, MHC-peptide complexes are separated from free peptide by gel filtration on 7.8 mm×15 cm TSK200 columns (TosoHaas 16215, Montgomeryville, PA). Because the large size of the radiolabeled peptide used for the DRB1*1501 (DR2w2(31) assay makes separation of bound from unbound peaks more difficult under these conditions, all DRB1*1501 (DR2w2(31) assays were performed using a 7.8 mm×30 cm TSK2000 column eluted at 0.6 mLs/min. The eluate from the TSK columns is passed through a Beckman 170 radioisotope detector, and radioactivity is plotted and integrated using a Hewlett-Packard 3396A integrator, and the fraction of peptide bound is determined.
Radiolabeled peptides are iodinated using the chloramine-T method. […] All subsequent inhibition and direct binding assays are performed using these HLA concentrations.
Since under these conditions [label]<[HLA] and IC50≥[HLA], the measured IC50 values are reasonable approximations of the true KD values. […] For database purposes, and inter-experiment comparisons, relative binding values are compiled. These values can subsequently be converted back into IC50 nM values by dividing the IC50 nM of the positive controls for inhibition by the relative binding of the peptide of interest.
HLA binding assays were used to evaluate either the affinity of interaction of a given epitope with a selected HLA molecule or the stability.
The measurements are plotted against the predicted affinity in FIG. 1.

Row | Molecule | IC50 (allele A02.01) [nM] | other results
1 | LLYITAFFLL | 323 | –
2 | FELLSTPPL | 225 | IC50 (allele B08.01): 3180 nM
3 | CSCC[C@H](N)C(=O)N[C@@H](C)C(=O)N[C@@H](CC(N)=O)C(=O)NCC(=O)N[C@@H](CO)C(=O)N[C@@H](CC(C)C)C(=O)N[C@@H](CC(C)C)C(=O)N[C@@H](CC(N)=O)C(=O)N[C@@H](Cc1ccc(O)cc1)C(=O)O | – | IC50 (allele A01.01): 439 nM
4 | VMSDTTYKIY | – | IC50 (allele A01.01): 376 nM
5 | PLSDLLLEML | 6470 | –
6 | LQVTQTSFAL [LQVTQTSFAL] | 718 | –
7 | TIGGPTLVII | 10700 | –
8 | FVMSDTTYKI | 62.4 | –
9 | TTNAFSGEY | – | IC50 (allele A01.01): 4.4 nM
10 | IIEFMTYGNL | 9700 | –
11 | SLYIVGFYG | 1060 | –
12 | MSVCFFFFSV | 1710 | –
13 | KQWSSVTSL | 26.5 | –
14 | CC[C@H](C)[C@H](NC(=O)[C@@H]1CCCN1C(=O)[C@H](CC(C)C)NC(=O)[C@@H](N)CC(C)C)C(=O)N1CCC[C@H]1C(=O)N1CCC[C@H]1C(=O)N[C@@H](CC(C)C)C(=O)N[C@@H](CO)C(=O)N1CCC[C@H]1C(=O)N[C@@H](CO)C(=O)O | 449 | –
15 | AMTTSSSQK | – | IC50 (Allele A11.01): 162 nM
16 | CC(C)C[C@H](NC(=O)[C@H](CO)NC(=O)[C@H](CCCCN)NC(=O)[C@H](CC(C)C)NC(=O)[C@@H](NC(=O)[C@H](CO)NC(=O)[C@@H]1CCCN1C(=O)[C@H](CC(C)C)NC(=O)[C@@H](N)Cc1ccccc1)[C@@H](C)O)C(=O)O | 21 | IC50 (allele B08.01): 1970 nM
17 | YMANGSLLN | 4440 | –
18 | KSLVRLSSCV | 280 | –
19 | ALEEKKGNYV | 141 | –
20 | FILMELMAGG | 1580 | –
21 | LKKLRSPL | – | IC50 (allele B08.01): 0.6 nM

Row | Molecule | IC50 (allele A02.01) [nM] | other results
22 | ALAPTLTHM | 59 | –
23 | NSFEVHVCA | 503 | –
24 | RLWHLLLQVT | 50.9 | –
25 | LVVVGADGV | 1190 | –
26 | SLVRLSSCV | 29.9 | –
27 | NVVPLCDLLL | 1370 | –
28 | TLQRSSLWCL | 118 | –
29 | ALWECSLPQA | 9 | –
30 | GMNWRPILT | 1130 | –
31 | IVSRTLLLV | 12.7 | –
32 | FQNGKMALS [FQNGKMALS] | 3280 | –
33 | LIVSRTLLLV | 10900 | –
34 | YMANGSLLNY | – | IC50 (allele A01.01): 13.2 nM
35 | MSDTTYKIY | – | IC50 (allele A01.01): 10.2 nM
36 | STVQLIMQL | 8540 | –
37 | LVRLSSCVPV | 1240 | –
38 | AIQPVLWTT | 8.1 | –
39 | LTSTVQLIM | – | IC50 (allele A01.01): 2890 nM
40 | LLQVTQTSFA | 677 | –
41 | CC[C@H](C)[C@H](NC(=O)[C@H](CC(C)C)NC(=O)[C@H](CCC(N)=O)NC(=O)[C@@H](NC(=O)[C@@H](NC(=O)[C@H](CO)NC(=O)[C@@H](NC(=O)[C@H](CC(C)C)NC(=O)[C@@H](N)CS)[C@@H](C)O)[C@@H](C)O)C(C)C)C(=O)N[C@@H](CCSC)C(=O)O | 716 | IC50 (allele A01.01): 11000 nM
42 | VVPLSDLLL | 2550 | –

Row | Molecule | IC50 (allele A02.01) [nM] | other results
43 | ILDTAGREEY | – | IC50 (allele A01.01): 7 nM
44 | AFSGEYIPTV | 781 | –
45 | CLSFLSSWDY | – | IC50 (allele A01.01): 987 nM
46 | AQAGVQWRSL | 670 | –
47 | LIMQLMPFG | 3510 | –
48 | YIIIEFMTYG | 186 | –
49 | KKLMLLRLNL | 289 | –
50 | FLLALWECS | 93.2 | –
51 | RLSSCVPVAL [RLSSCVPVAL] | 54.2 | –
52 | GSNEVTTRY | – | IC50 (allele A01.01): 606 nM
53 | ALFFFFFET | 471 | –
54 | VRLSSCVPVA | 1210 | –
55 | ILIRKAMTV | 19.5 | –
56 | ALQPLQPHA | 604 | –
57 | LATEKSRWSG | 23300 | IC50 (allele B08.01): 46600 nM
58 | LSFLSSWDY | – | IC50 (allele A01.01): 52.9 nM
59 | MLTGPPARV | 10.6 | –
60 | LLSTPPLSPS | 1770 | –
61 | KLFSCLSFLS | 0.6 | –
62 | VQWRSLGSL | 4730 | –
